{"source": "PubChem BioAssay AID2060601", "about": "(Molecular Pharmacology Branch, DTP, NCI, 2025);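 note: spheroids exposed to the compounds for 7 days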;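 for viability, T/C: 100% = DMSO vehicle control viability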", "system": "874868-142-R-J2-PDC complex spheroids, growth % test/control", "test": "Anticancer human tumor 874868-142-R-J2-PDC patient-derived head and neck squamous carcinoma cell line growth inhibition [CLK]", "conditions": "for IC50: curve of first compound; for viability, T/C: stronger effect = lower value", "outline": "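Multi-cell-type spheroids combined patient-derived tumor cells with HUVEC endothelial cells and human mesenchymal stem cells. Paired agents were dosed in half-log steps down from about clinical Cmax, or from 10 microM where Cmax was unknown.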", "key": {"[1]": {"conditions": "second compound 0.0316 µM, first compound 0.0316 µM"}, "[2]": {"conditions": "second compound 0.0316 µM, first compound 0.1 µM"}, "[3]": {"conditions": "second compound 0.0316 µM, first compound 0.316 µM"}, "[4]": {"conditions": "second compound 0.0316 µM, first compound 1 µM"}, "[5]": {"conditions": "second compound 0.0316 µM, first compound 3.16 µM"}, "[6]": {"conditions": "second compound 0.0316 µM, first compound 10 µM"}, "[7]": {"conditions": "second compound 0.1 µM, first compound 0.0316 µM"}, "[8]": {"conditions": "second compound 0.1 µM, first compound 0.1 µM"}, "[9]": {"conditions": "second compound 0.1 µM, first compound 0.316 µM"}, "[10]": {"conditions": "second compound 0.1 µM, first compound 1 µM"}, "[11]": {"conditions": "second compound 0.1 µM, first compound 3.16 µM"}, "[12]": {"conditions": "second compound 0.1 µM, first compound 10 µM"}, "[13]": {"conditions": "second compound 0.316 µM, first compound 0.0316 µM"}, "[14]": {"conditions": "second compound 0.316 µM, first compound 0.1 µM"}, "[15]": {"conditions": "second compound 0.316 µM, first compound 0.316 µM"}, "[16]": {"conditions": "second compound 0.316 µM, first compound 1 µM"}, "[17]": {"conditions": "second compound 0.316 µM, first compound 3.16 µM"}, "[18]": {"conditions": "second compound 0.316 µM, first compound 10 µM"}, "[19]": {"conditions": "second compound 1 µM, first compound 0.0316 µM"}, "[20]": {"conditions": "second compound 1 µM, first compound 0.1 µM"}, "[21]": {"conditions": "second compound 1 µM, first compound 0.316 µM"}, "[22]": {"conditions": "second compound 1 µM, first compound 1 µM"}, "[23]": {"conditions": "second compound 1 µM, first compound 3.16 µM"}, "[24]": {"conditions": "second compound 1 µM, first compound 10 µM"}, "[25]": {"conditions": "second compound 3.16 µM, first compound 0.0316 µM"}, "[26]": {"conditions": "second compound 3.16 µM, first compound 0.1 µM"}, "[27]": {"conditions": "second compound 3.16 µM, first compound 0.316 µM"}, "[28]": {"conditions": "second compound 3.16 µM, first compound 1 µM"}, "[29]": {"conditions": "second compound 3.16 µM, first compound 3.16 µM"}, "[30]": {"conditions": "second compound 3.16 µM, first compound 10 µM"}, "[31]": {"conditions": "second compound 10 µM, first compound 0.0316 µM"}, "[32]": {"conditions": "second compound 10 µM, first compound 0.1 µM"}, "[33]": {"conditions": "second compound 10 µM, first compound 0.316 µM"}, "[34]": {"conditions": "second compound 10 µM, first compound 1 µM"}, "[35]": {"conditions": "second compound 10 µM, first compound 3.16 µM"}, "[36]": {"conditions": "second compound 10 µM, first compound 10 µM"}}, "data": [{"smiles": "C#Cc1c(F)ccc2cc(O)cc(-c3ncc4c(N5CC6CCC(C5)N6)nc(OCC56CCCN5CC(F)C6)nc4c3F)c12", "note": "(centres undefined) + CNC(=O)c1ccc(Nc2nc(OC3CCCC3)c3c(-c4ccc5nc(C)oc5c4)c[nH]c3n2)c(OC)c1", "values": [{"measurement": "IC50", "setting": "second compound 0.0316 µM", "value": 6560, "unit": "nM"}, {"measurement": "IC50", "setting": "second compound 0.1 µM", "value": 862, "unit": "nM"}, {"measurement": "IC50", "setting": "second compound 0.316 µM", "value": 89.5, "unit": "nM"}, {"measurement": "IC50", "setting": "second compound 1 µM", "value": "< 31.6", "unit": "nM"}, {"measurement": "IC50", "setting": "second compound 3.16 µM", "value": "< 31.6", "unit": "nM"}, {"measurement": "IC50", "setting": "second compound 10 µM", "value": "< 31.6", "unit": "nM"}, {"measurement": "viability, T/C", "setting": "[1]", "value": 92.7, "unit": "%"}, {"measurement": "viability, T/C", "setting": "[2]", "value": 75.7, "unit": "%"}, {"measurement": "viability, T/C", "setting": "[3]", "value": 80.7, "unit": "%"}, {"measurement": "viability, T/C", "setting": "[4]", "value": 65, "unit": "%"}, {"measurement": "viability, T/C", "setting": "[5]", "value": 54.3, "unit": "%"}, {"measurement": "viability, T/C", "setting": "[6]", "value": 47.1, "unit": "%"}, {"measurement": "viability, T/C", "setting": "[7]", "value": 72.5, "unit": "%"}, {"measurement": "viability, T/C", "setting": "[8]", "value": 84.5, "unit": "%"}, {"measurement": "viability, T/C", "setting": "[9]", "value": 66.5, "unit": "%"}, {"measurement": "viability, T/C", "setting": "[10]", "value": 48.4, "unit": "%"}, {"measurement": "viability, T/C", "setting": "[11]", "value": 51, "unit": "%"}, {"measurement": "viability, T/C", "setting": "[12]", "value": 43.3, "unit": "%"}, {"measurement": "viability, T/C", "setting": "[13]", "value": 58.1, "unit": "%"}, {"measurement": "viability, T/C", "setting": "[14]", "value": 48.5, "unit": "%"}, {"measurement": "viability, T/C", "setting": "[15]", "value": 44.2, "unit": "%"}, {"measurement": "viability, T/C", "setting": "[16]", "value": 43, "unit": "%"}, {"measurement": "viability, T/C", "setting": "[17]", "value": 39.8, "unit": "%"}, {"measurement": "viability, T/C", "setting": "[18]", "value": 39, "unit": "%"}, {"measurement": "viability, T/C", "setting": "[19]", "value": 41.6, "unit": "%"}, {"measurement": "viability, T/C", "setting": "[20]", "value": 39.4, "unit": "%"}, {"measurement": "viability, T/C", "setting": "[21]", "value": 36.5, "unit": "%"}, {"measurement": "viability, T/C", "setting": "[22]", "value": 35.2, "unit": "%"}, {"measurement": "viability, T/C", "setting": "[23]", "value": 35.1, "unit": "%"}, {"measurement": "viability, T/C", "setting": "[24]", "value": 31.6, "unit": "%"}, {"measurement": "viability, T/C", "setting": "[25]", "value": 37.1, "unit": "%"}, {"measurement": "viability, T/C", "setting": "[26]", "value": 37.8, "unit": "%"}, {"measurement": "viability, T/C", "setting": "[27]", "value": 31.1, "unit": "%"}, {"measurement": "viability, T/C", "setting": "[28]", "value": 30, "unit": "%"}, {"measurement": "viability, T/C", "setting": "[29]", "value": 30.5, "unit": "%"}, {"measurement": "viability, T/C", "setting": "[30]", "value": 33.8, "unit": "%"}, {"measurement": "viability, T/C", "setting": "[31]", "value": 35.8, "unit": "%"}, {"measurement": "viability, T/C", "setting": "[32]", "value": 37.4, "unit": "%"}, {"measurement": "viability, T/C", "setting": "[33]", "value": 33.9, "unit": "%"}, {"measurement": "viability, T/C", "setting": "[34]", "value": 32.6, "unit": "%"}, {"measurement": "viability, T/C", "setting": "[35]", "value": 32.4, "unit": "%"}, {"measurement": "viability, T/C", "setting": "[36]", "value": 26.8, "unit": "%"}]}, {"smiles": "C=C(F)C(=O)N1CCN(c2nc(OCC3CCCN3C)nc3c2CCN(c2cccc4cccc(Cl)c24)C3)CC1CC#N", "note": "(centres undefined) + CNC(=O)c1ccc(Nc2nc(OC3CCCC3)c3c(-c4ccc5nc(C)oc5c4)c[nH]c3n2)c(OC)c1", "values": [{"measurement": "IC50", "setting": "second compound 0.0316 µM", "value": 3460, "unit": "nM"}, {"measurement": "IC50", "setting": "second compound 0.1 µM", "value": 3370, "unit": "nM"}, {"measurement": "IC50", "setting": "second compound 0.316 µM", "value": "< 31.6", "unit": "nM"}, {"measurement": "IC50", "setting": "second compound 1 µM", "value": "< 31.6", "unit": "nM"}, {"measurement": "IC50", "setting": "second compound 3.16 µM", "value": "< 31.6", "unit": "nM"}, {"measurement": "IC50", "setting": "second compound 10 µM", "value": "< 31.6", "unit": "nM"}, {"measurement": "viability, T/C", "setting": "[1]", "value": 91.7, "unit": "%"}, {"measurement": "viability, T/C", "setting": "[2]", "value": 70.4, "unit": "%"}, {"measurement": "viability, T/C", "setting": "[3]", "value": 89.3, "unit": "%"}, {"measurement": "viability, T/C", "setting": "[4]", "value": 68.4, "unit": "%"}, {"measurement": "viability, T/C", "setting": "[5]", "value": 56.8, "unit": "%"}, {"measurement": "viability, T/C", "setting": "[6]", "value": 0.28, "unit": "%"}, {"measurement": "viability, T/C", "setting": "[7]", "value": 71.2, "unit": "%"}, {"measurement": "viability, T/C", "setting": "[8]", "value": 68.8, "unit": "%"}, {"measurement": "viability, T/C", "setting": "[9]", "value": 65.9, "unit": "%"}, {"measurement": "viability, T/C", "setting": "[10]", "value": 61.6, "unit": "%"}, {"measurement": "viability, T/C", "setting": "[11]", "value": 54.6, "unit": "%"}, {"measurement": "viability, T/C", "setting": "[12]", "value": 0.63, "unit": "%"}, {"measurement": "viability, T/C", "setting": "[13]", "value": 50.5, "unit": "%"}, {"measurement": "viability, T/C", "setting": "[14]", "value": 49.2, "unit": "%"}, {"measurement": "viability, T/C", "setting": "[15]", "value": 47.6, "unit": "%"}, {"measurement": "viability, T/C", "setting": "[16]", "value": 43.8, "unit": "%"}, {"measurement": "viability, T/C", "setting": "[17]", "value": 38.5, "unit": "%"}, {"measurement": "viability, T/C", "setting": "[18]", "value": 1.18, "unit": "%"}, {"measurement": "viability, T/C", "setting": "[19]", "value": 44.4, "unit": "%"}, {"measurement": "viability, T/C", "setting": "[20]", "value": 33, "unit": "%"}, {"measurement": "viability, T/C", "setting": "[21]", "value": 36.7, "unit": "%"}, {"measurement": "viability, T/C", "setting": "[22]", "value": 38.5, "unit": "%"}, {"measurement": "viability, T/C", "setting": "[23]", "value": 35.2, "unit": "%"}, {"measurement": "viability, T/C", "setting": "[24]", "value": 0.25, "unit": "%"}, {"measurement": "viability, T/C", "setting": "[25]", "value": 37.5, "unit": "%"}, {"measurement": "viability, T/C", "setting": "[26]", "value": 41.8, "unit": "%"}, {"measurement": "viability, T/C", "setting": "[27]", "value": 31, "unit": "%"}, {"measurement": "viability, T/C", "setting": "[28]", "value": 38, "unit": "%"}, {"measurement": "viability, T/C", "setting": "[29]", "value": 32.2, "unit": "%"}, {"measurement": "viability, T/C", "setting": "[30]", "value": 7.83, "unit": "%"}, {"measurement": "viability, T/C", "setting": "[31]", "value": 36.1, "unit": "%"}, {"measurement": "viability, T/C", "setting": "[32]", "value": 35.1, "unit": "%"}, {"measurement": "viability, T/C", "setting": "[33]", "value": 38.1, "unit": "%"}, {"measurement": "viability, T/C", "setting": "[34]", "value": 39.1, "unit": "%"}, {"measurement": "viability, T/C", "setting": "[35]", "value": 31.1, "unit": "%"}, {"measurement": "viability, T/C", "setting": "[36]", "value": 3.95, "unit": "%"}]}]}
